Measurements reported in patent US10092568B2, “CBP/Catenin antagonists for enhancing asymmetric division of somatic stem cells” (University of Southern California, priority 2010, dated 2018).
Entries after “also recorded” stand apart in the source; their conditions may differ.

What was measured:
hair-less mouse model = test: Hair growth in a hair-less mouse model; type: in vivo
Description: The ability of CBP/β-catenin antagonist to stimulate hair growth in a hair-less mouse model was tested. In brief, the animals were treated with either petroleum jelly or Laura-8 for 16 days. In addition, skin samples from each animal were taken and examined for hair-follicle formulation.

aging mice = test: Long term topical treatment of aging mice; type: in vivo, mouse; conditions: 12 months, from 6 to 18 months of age
Description: Left mouse is control, whereas right mouse received CBP/catenin (e.g., CBP/β-catenin) antagonists (topical Laura-8 as disclosed herein) for 12 months (from 6 months of age to 18 months of age).

skin injury = test: Skin injury repair in normal mice and hair-less mice models; type: in vivo, mouse; conditions: 500 μM in vaseline once a day for eight days, both animal models
Description: The ability of CBP/catenin (e.g., CBP/β-catenin) antagonist to accelerate injured skin repair in normal mice models (having full hair growth and normal fur) and hair-less mice models was tested. In brief, on day 0, the animals were subjected to skin injury in two spots on the back, hind end of each animal. Each skin injury spot was treated with 500 μM of either Vaseline (petrolatum) (vehicle) or Laura-8 in vaseline once a day for eight days.

[1] = tested on: human skin (surgical waste); test: Ex vivo human skin assay, qRT-PCR; type: cell-based; conditions: 24 hrs; 5 uM ICG-001, 5 uM methylated ICG-001, 1 ug/ml RA
Description: Methods. Ex Vivo human skin assay culture conditions were based upon a paper by Varani J et al Experimental and Molecular Pathology, 2004.
Briefly, human skin (surgical waste from plastic surgery procedures) was obtained and the subcutaneous layer of fat was trimmed manually with a scalpel. The skin was then cut into small fragments about 2 mm square and placed in 6 well plates. 1 ml of keratinocyte culture medium (Gibco 10724-011) with 1% P/S (penstrep antibiotic) was added to each well. The epidermis, bathed in media was placed facing up. On the next day (overnight culture in the media above), the skin fragments were transferred to fresh wells that contained either 5 uM ICG-001, 5-uM methylated ICG-001 or 1 ug/ml of retinoic acid (RA). After 24 hrs, skin samples in culture were removed for RNA isolation and qRT-PCR analysis of genes of interest (e.g., elastin (a gene involved in skin appearance and pliability (e.g., wrinkling)) and aquaporin 1, which is involved with hydration.

[2] = tested on: mitotic cells in the ventricular zone (VZ); test: Par3 localization assay of symmetric versus asymmetric divisions in the ventricular zone of embryonic brain; type: in vivo, mouse
Description: Taking advantage of the ready uptake and penetration through the placental barrier of applicant's small molecule Wnt modulators, applicant designed a series of experiments to investigate symmetric versus asymmetric divisions in the ventricular zone (VZ) of the brain during mouse embryonic development. Timed pregnant mice were topically treated for various time periods (1-3 days) with DMSO (vehicle control), the CBP/catenin antagonist ICG-001 or the p300/catenin antagonist IQ-1. Using a previously described protocol (56), the localization of […] (Par3) and DNA was examined in mitotic cells in the VZ. Par3 distributes symmetrically in cells that divide symmetrically and asymmetrically in cells that divide asymmetrically, whereas the DNA distributes symmetrically between the 2 cells. Using fluorescence microscopy, the percentage of mitotic cells dividing symmetrically or asymmetrically could be quantified. […] Antagonizing the CBP/catenin interaction with ICG-001 had no apparent effect yielding similarly, approximately 21% asymmetric divisions. […] Importantly, this decrease in asymmetric divisions upon treatment with IQ-1 could be rescued back essentially to control levels (i.e. ˜21%) by treatment with a 2-fold excess of ICG-001. Even further divergence in symmetric versus asymmetric divisions could be seen upon prolonged treatments. For example, treatment with IQ-1 (i.e., antagonizing p300/catenin interaction leading to increased usage of CBP) for 3 days (E13.5-16.5) decreased asymmetric divisions compared to control from 31% to 7%. […] This reporter mouse expresses EGFP, driven by the Tis21 promoter, in cells that have undergone neurogenic differentiative divisions.
For example, Bultje et al. (Bultje R Neuron 63, 189-202, 2009) describe an assay to measure asymmetric distributions in the ventricular zone (vz) to evaluate asymmetric divisions during neurogenesis. Essentially this involves treating the animal (either adult or in utero) for a set period of time with compounds (either p.o., s.c., i.v. or topically) with compounds and then sacrificing the animal and examining the Par3 distribution (e.g., via immunohistochemistry) in mitotic cells vs. DNA distribution (e.g., using DAPI staining) Par3 distributes equally among the two daughter cells during symmetric division and unequally (essentially all in one daughter cell) during asymmetric differentiation.

[3] = tested on: PR72/130 subunit of the serine/threonine phosphatase PP2A; test: Binding to PP2A subunit
Description: (§1) IQ-1. In addition to ICG-001, a screen of a large chemical library for maintenance of pluripotency in mES cells led to the identification of another compound, termed IQ-1 (FIG. 2b). […] I-Q-1 diminishes the interaction between p300 and beta-catenin thereby increasing the CBP/beta-catenin interaction (24).

[4] = tested on: p300/beta-catenin interaction; test: Disruption of the p300/beta-catenin interaction; type: biochemical
Description: Applicant next mapped the binding domains between CBP and beta-catenin, as well as between p300 and beta-catenin. The C-terminal trans-activating region of beta-catenin (647-781) interacted with the same 1-111 amino acids of both CBP and p300 (23). However, only the interaction between CBP and beta-catenin was disrupted by ICG-001, and not the p300/beta-catenin interaction.
as §1

p300 at Ser-89 = test: Phosphorylation of p300 at Ser-89; type: cell-based
Description: as §1

[5] = tested on: murine embryonic stem cells (mESCs); test: Maintenance of pluripotency of embryonic stem cells in long-term culture; type: cell-based, mouse; conditions: Wnt-dependent
Description: as §1
Similar results upon selectively antagonizing the p300/catenin interaction have also been obtained with human ES cells (32; Hasegawa, K. et al. accepted Stem Cells Translation Medicine 2011). Blocking the CBP/catenin interaction with ICG-001 can prevent the induction of pluripotency, whereas selectively antagonizing the p300/catenin interaction can enhance reprogramming (33; present applicant unpublished data).

`CCCCCCCCCCCC(=O)Oc1ccc(C[C@H]2C(=O)N(Cc3cccc4ccccc34)C[C@@H]3N(C(=O)NCc4ccccc4)CCC(=O)N32)cc1` [Laura-8] was tested, and the hair growth (hair-less mouse model; 16 days, versus petroleum jelly) was “significant hair growth”, the new hair-follicle formation (hair-less mouse model; skin pathology) was “new hair-follicles were formed; also recorded: substantial new hair-follicle formation” and the “normal stem cell niche” value (aging mice) was “does not deplete”. For the same compound, the skin healing (skin injury) was “significantly accelerated”.

In the case of `C[C@H]1C2N(C(=O)NCc3ccccc3)CCC(=O)N2[C@@H](Cc2ccc(O)cc2)C(=O)N1Cc1cccc2ccccc12` (some centres unmarked) [Me-ICG-001], the “expression of aquaporin 1” value [1] is reported as “larger increase” and the expression of elastin [1] is reported as “larger increase”.

`CC(=O)c1ccc(N=NC(C(N)=O)=C2NC(C)(C)Cc3ccccc32)cc1` [IQ-1, reference compound] was tested, and the “asymmetric divisions in the VZ” value ([2]; 3 days, E13.5-16.5, control 31%) was 7%, the “number of symmetric differentiative divisions” value ([2]; normal neural stem cells) was “increase” and the “number of asymmetric divisions compared to vehicle control” value ([2]; topical or oral administration to pregnant mice) was “decreases”. For the same compound, the “asymmetric divisions in the VZ” value ([2]; topical, 1 day, E13.5 to 14.5, DMSO approximately 21%) was “approximately 9%”, the “binding to PR72/130 subunit of PP2A” value [3] was “binds” and the p300/beta-catenin interaction [4] was “diminishes”. The “phosphorylation of p300 at Ser-89” value (p300 at Ser-89) was “decreased phosphorylation” and the “pluripotency of mESCs” value [5] was “maintains the pluripotency; also recorded: prevents spontaneous differentiation”.
